{"source": "patent US10301304B2", "about": "“Selective inhibitor of phosphatidylinositol 3-kinase-gamma” (VERTEX PHARMACEUTICALS INCORPORATED, priority 2013, dated 2019)", "key": {"[1]": {"tested_on": "buffy coat neutrophils and monocytes (PI3K-gamma)", "assay": "Isolated Leukocyte oxidative burst", "assay_type": "cell-based", "conditions": "absence of serum, read-out: IC50 Average ± Standard Deviation", "description": "Neutrophils, monocytes and macrophages are key mediators of innate immunity. They release reactive oxygen species (ROS) as part of the innate immune inflammatory response. ROS production is induced by inflammatory mediators like chemokines, bacterial peptides and complement that recruit the innate immune cells to the site of inflammation. These inflammatory mediators trigger activation of PI3K-gamma and initiate a downstream signaling cascade that leads to the assembly of the complete NADPH oxidase complex at the plasma membrane generating ROS. PI3K-gamma functional activity was measured in whole blood and huffy coat neutrophils and monocytes via the generation of ROS. The cells are stimulated with TNF-alpha for 10 minutes, then with bacterial cell wall-derived chemotactic peptide, fMLP, for 20 minutes, and loaded with a non-fluorescent dye […] (DHR). ROS produced by the cells oxidizes DHR to fluorescent rhodamine causing an increase in fluorescent rhodamine content in the cells. PI3K-gamma functional activity is measured by the ability of neutrophils and monocytes to generate ROS following fMLP stimulation. Leukocytes and whole blood samples were analyzed on a BD FACSCalibur™ to quantitate cells positive for fluorescent rhodamine. Buffy coat cells generate IC50S in the absence of serum and whole blood assay generates IC50S in the presence of serum."}, "[2]": {"assay": "Permeability in MDCK wild-type cell line", "assay_type": "in vitro ADME, canine", "conditions": "dog, MDCK-WT", "protocol": "(§1) The permeability of Compound 1 was evaluated using both Caco-2 and MadinDarby canine kidney (MDCK) wild-type cell lines. Cells were exposed to drug in buffer on the apical side (measuring permeability in the A-to-B direction) or basolateral side (measuring permeability in the B-to-A direction) and incubated at 37° C. for one hour. Permeability was high in the A-to-B direction in both the MDCK and Caco-2 cell lines (33 and 18×10^−6 cm/sec, respectively)."}, "MDCK-WT": {"tested_on": "MDCK-WT", "assay": "Permeability in MDCK wild-type cell line", "assay_type": "in vitro ADME, canine", "conditions": "1 μM, A > B", "protocol": "as §1"}, "[3]": {"assay": "Oral pharmacokinetics / bioavailability", "assay_type": "in vivo, Rat", "description": "The bioavailability in monkey (greater than 100%) may be explained by the tenfold difference between the IV and oral doses. Compound 1 was rapidly absorbed in all species, with maximum systemic concentration observed within approximately one to three hours of dosing."}, "[4]": {"tested_on": "collagen-induced arthritis (CIA)", "assay": "therapeutic mouse collagen-induced arthritis (CIA) model", "assay_type": "in vivo", "set-up": "Histopathology Summed Score, Knees / Therapeutic Paw Score AUC / Histopathology Summed Score, Six Joints / Histopathology Summed Score, Paws: scale not given here", "conditions": "for All Paw Score AUC / Histopathology Summed Score, Knees / Histopathology Summed Score, Paws / Histopathology Summed Score, Six Joints / Prophylactic Paw Score AUC / Therapeutic Paw Score AUC: 10 days; for Arthritis scores measured daily, all paws (FIG. 1): *d2-11, vs vehicle", "protocol": "Compound 1 was tested in the therapeutic mouse collagen-induced arthritis (CIA) model at 2.5 mg/kg BID (5 mg/kg/day), 5 mg/kg BID (10 mg/kg/day) or 10 mg/kg BID (20 mg/kg/day). Fostamatinib, a Syk small molecule inhibitor used as a reference standard, was dosed orally at 30 mg/kg BID (60 mg/kg/day). Compounds were dosed for 10 days in a 12/12-hour BID dosing regimen until the end of the study. Compound 1 was formulated in 0.2% MC, 1% SLS. Dosing volume was 10 mL/kg. Terminal plasma samples were collected at 2, 4 and 12 hours post last dose. All four paws and both knees were collected and processed for histopathology."}, "[5]": {"assay": "Tissue drug concentrations in CD40-induced IBD model", "assay_type": "in vivo, mouse", "conditions": "7 days, 2 h after last dose; for Kp at 2 h / concentration at 2 h: Rag1 knock-out (Rag 1−/−), mouse, intraperitoneal; for Kp at 2 h: colon (relative to plasma); for concentration at 2 h: plasma", "protocol": "The PI3Kγ inhibitor, Compound 1, was tested in a CD40 induced colitis model to determine its effect on disease course. The CD40 model of IBD is induced by injecting an anti-CD40 monoclonal antibody (agonist, i.e., activating antibody versus neutralizing antibody) into T and B cell deficient mice (Rag 1−/− mice) to induce both systemic and intestinal inflammation that leads to colitis and wasting disease via the innate immune pathway. (See, e.g., Immunity 25, 309-318, August 2006). Briefly, Rag1 knock-out mice were injected IP with the anti-CD40 monoclonal antibody FGK45. Starting on Day 0, mice were treated with PBS, vehicle or Compound 1 at 5 mg/kg b.i.d. or 10 mg/kg b.i.d. Compound 1 was administered IP for 7 days on a 10/14-hour b.i.d. dosing regimen. Compound 1 was formulated in 5% NMP/15% PEG-400/80% in a 0.5% HPMC-E50 solution in water. At study termination, serum and colon samples were collected at 2 hours following the last dose for drug concentration analysis. Body weights were measured daily during the study. Compound 1 concentrations were analyzed in the plasma samples collected 2 hours following the final dose at study termination. Concentrations were determined using a high performance liquid chromatography/tandem mass spectrometry (HPLC/MS/MS) method."}, "[6]": {"conditions": "in vivo, Rat, single oral, 1 mg/kg nominal, spray-dried dispersion"}}, "note": "Where two headings read alike, the source gives them in different places."}
{"smiles": "Cc1cc(-c2cncc([C@@H](O)C(F)(F)F)c2)nc2c1C(=O)N(c1cnn(CC(F)F)c1)C2(C)C", "note": "[Compound 1, (R)-6-(1-(2,2-difluoroethyl)-1H-pyrazol-4-yl)-4,7,7-trimethyl-2-(5-(2,2,2-trifluoro-1-hydroxyethyl)pyridin-3-yl)-6,7-dihydro-5H-pyrrolo[3,4-b]pyridin-5-one]", "values": [{"measurement": "IC50", "setting": "[1]", "value": 220, "unit": "nM"}, {"measurement": "Papp A→B at 1 h, 1 μM", "setting": "[2]; MDCK, A > B", "value": 33, "unit": "×10⁻⁶ cm/s"}, {"measurement": "recovery at 1 h, 1 μM", "setting": "[2]; MDCK, A > B", "value": 90, "unit": "%"}, {"measurement": "recovery at 1 h, 1 μM", "setting": "[2]; MDCK, B > A", "value": 93, "unit": "%"}, {"measurement": "efflux ratio at 1 h, 1 μM", "setting": "[2]", "value": 1.4}, {"measurement": "Papp B→A at 1 h, 1 μM", "setting": "[2]; B > A", "value": 23.8, "unit": "×10⁻⁶ cm/s"}, {"measurement": "Avg. Papp", "setting": "MDCK-WT", "value": 17.55, "unit": "×10⁻⁶ cm/s"}, {"measurement": "DN_AUCINF", "setting": "[3]; Rat, single oral, 1 mg/kg nominal, spray-dried dispersion", "value": 5140, "unit": "ng·h/mL"}, {"measurement": "F", "setting": "[3]; Rat, single oral, 1 mg/kg nominal, spray-dried dispersion, 1 mg/kg", "value": 84, "unit": "%"}, {"measurement": "AUC(0-inf)", "setting": "[3]; [6]", "value": 5110, "unit": "ng·h/mL"}, {"measurement": "MRT", "setting": "[3]; [6]", "value": 18.3, "unit": "h"}, {"measurement": "Tmax", "setting": "[3]; [6]", "value": 3.33, "unit": "h"}, {"measurement": "half-life", "setting": "[3]; [6]", "value": 12.5, "unit": "h"}, {"measurement": "AUC", "setting": "[3]; in vivo, Rat, single oral, 1 mg/kg nominal, spray-dried dispersion, read-out: AUCALL", "value": 5000, "unit": "ng·h/mL"}, {"measurement": "Cmax", "setting": "[3]; in vivo, Rat, single oral, 1 mg/kg nominal, spray-dried dispersion, read-out: Cmax", "value": 260, "unit": "ng/mL"}, {"measurement": "AUC", "setting": "[3]; rat, in vivo, Oral gavage, 3 mg/kg nominal dose, vehicle 0.2%MC/1%SLS, read-out: Rat PO AUC", "value": 18000, "unit": "ng·h/mL"}, {"measurement": "Cmax", "setting": "[3]; rat, in vivo, Oral gavage, 3 mg/kg nominal dose, vehicle 0.2%MC/1%SLS, read-out: Rat PO Cmax", "value": 1000, "unit": "ng/mL"}, {"measurement": "reduction of arthritis scores AUC, prophylactic paws only", "setting": "[4]; 2.5 mg/kg BID", "value": 42, "unit": "%"}, {"measurement": "reduction of clinical arthritis scores AUC vs vehicle, all paws", "setting": "[4]; 2.5 mg/kg BID", "value": 28, "unit": "%"}, {"measurement": "All Paw Score AUC", "setting": "[4]; 2.5 mg/kg BID", "value": "*22.76"}, {"measurement": "Histopathology Summed Score, Knees", "setting": "[4]; 2.5 mg/kg BID", "value": 6.83}, {"measurement": "Histopathology Summed Score, Paws", "setting": "[4]; 2.5 mg/kg BID", "value": 8.14}, {"measurement": "Histopathology Summed Score, Six Joints", "setting": "[4]; 2.5 mg/kg BID", "value": 7.70}, {"measurement": "Prophylactic Paw Score AUC", "setting": "[4]; 2.5 mg/kg BID", "value": "*41.35"}, {"measurement": "Therapeutic Paw Score AUC", "setting": "[4]; 2.5 mg/kg BID", "value": 49.25}, {"measurement": "clinical arthritis scores, prophylactic paws (FIG. 3)", "setting": "[4]; 2.5 mg/kg BID, *d2, 4-11", "value": "significantly reduced"}, {"measurement": "Arthritis scores measured daily, all paws (FIG. 1)", "setting": "[4]; 2.5 mg/kg BID", "value": "significantly reduced toward normal"}, {"measurement": "reduction of arthritis scores AUC, prophylactic paws only", "setting": "[4]; 5 mg/kg BID", "value": 81, "unit": "%"}, {"measurement": "reduction of clinical arthritis scores AUC vs vehicle, all paws", "setting": "[4]; 5 mg/kg BID", "value": 63, "unit": "%"}, {"measurement": "All Paw Score AUC", "setting": "[4]; 5 mg/kg BID", "value": "*11.84"}, {"measurement": "Histopathology Summed Score, Knees", "setting": "[4]; 5 mg/kg BID", "value": "*2.53"}, {"measurement": "Histopathology Summed Score, Paws", "setting": "[4]; 5 mg/kg BID", "value": "*3.64"}, {"measurement": "Histopathology Summed Score, Six Joints", "setting": "[4]; 5 mg/kg BID", "value": "*3.27"}, {"measurement": "Prophylactic Paw Score AUC", "setting": "[4]; 5 mg/kg BID", "value": "*13.35"}, {"measurement": "Therapeutic Paw Score AUC", "setting": "[4]; 5 mg/kg BID", "value": 34.00}, {"measurement": "clinical arthritis scores, prophylactic paws (FIG. 3)", "setting": "[4]; 5 mg/kg BID, *d2-11", "value": "significantly reduced"}, {"measurement": "Arthritis scores measured daily, all paws (FIG. 1)", "setting": "[4]; 5 mg/kg BID", "value": "significantly reduced toward normal"}, {"measurement": "clinical arthritis scores, therapeutic paws (FIG. 2)", "setting": "[4]; 5 mg/kg BID, *d5-11", "value": "significantly reduced"}, {"measurement": "reduction of arthritis scores AUC, prophylactic paws only", "setting": "[4]; 10 mg/kg BID", "value": 98, "unit": "%"}, {"measurement": "reduction of arthritis scores AUC, therapeutic paws only", "setting": "[4]; 10 mg/kg BID", "value": 79, "unit": "%"}, {"measurement": "reduction of clinical arthritis scores AUC vs vehicle, all paws", "setting": "[4]; 10 mg/kg BID", "value": 89, "unit": "%"}, {"measurement": "All Paw Score AUC", "setting": "[4]; 10 mg/kg BID", "value": "*3.34"}, {"measurement": "Histopathology Summed Score, Knees", "setting": "[4]; 10 mg/kg BID", "value": "*0.68"}, {"measurement": "Histopathology Summed Score, Paws", "setting": "[4]; 10 mg/kg BID", "value": "*0.79"}, {"measurement": "Histopathology Summed Score, Six Joints", "setting": "[4]; 10 mg/kg BID", "value": "*0.75"}, {"measurement": "Prophylactic Paw Score AUC", "setting": "[4]; 10 mg/kg BID", "value": "*1.60"}, {"measurement": "Therapeutic Paw Score AUC", "setting": "[4]; 10 mg/kg BID", "value": "*11.75"}, {"measurement": "clinical arthritis scores, prophylactic paws (FIG. 3)", "setting": "[4]; 10 mg/kg BID, *d2-11", "value": "significantly reduced"}, {"measurement": "clinical arthritis scores, therapeutic paws (FIG. 2)", "setting": "[4]; 10 mg/kg BID, *d2-11", "value": "significantly reduced"}, {"measurement": "Arthritis scores measured daily, all paws (FIG. 1)", "setting": "[4]; 10 mg/kg BID", "value": "significantly reduced toward normal"}, {"measurement": "2 h Tissue Drug Concentration, Colon", "setting": "[5]; 5 mg/kg b.i.d. IP", "value": "6110 ± 6350", "unit": "ng/g"}, {"measurement": "2 h Tissue Drug Concentration, Colon", "setting": "[5]; 10 mg/kg b.i.d. IP", "value": "7480 ± 9700", "unit": "ng/g"}, {"measurement": "Kp at 2 h", "setting": "[5]; 5 mg/kg b.i.d. IP", "value": 1.5}, {"measurement": "Kp at 2 h", "setting": "[5]; 10 mg/kg b.i.d. IP", "value": 1.2}, {"measurement": "concentration at 2 h", "setting": "[5]; 5 mg/kg b.i.d. IP", "value": "4020 ± 4520", "unit": "ng/mL"}, {"measurement": "concentration at 2 h", "setting": "[5]; 10 mg/kg b.i.d. IP", "value": "6220 ± 6190", "unit": "ng/mL"}]}
